Measurements as given in patent EP1060182B1, “NOVEL PRODRUGS FOR PHOSPHORUS-CONTAINING COMPOUNDS” (Metabasis Therapeutics, Inc., priority 1998, dated 1999).
pIC50: −log10 of the molar value. Several values for one entry are separate records, joined by “and”; a condition that tells them apart may be missing. Equal entries are not always repeated. Entries after “also recorded” stand apart in the source; their conditions may differ. Where two headings read alike, the source gives them in different places. Each block holds one compound with its values, some of them ahead of it.

Experiments:
[1] = system: microsomal fraction of human liver; assay: Activation by human liver microsomes (Example E); assay type: in vitro ADME
Experimental: 7.1, 1.3, and 30.1 were tested for conversion to their respective parent compounds by the microsomal fraction of human liver.

[2] = Chemical stability in isotonic saline and phosphate buffer (Example A); assay type: physicochemical
[3] = system: glucose production in isolated rat hepatocytes; assay: Inhibition of glucose production in rat hepatocytes (Example J); assay type: cell-based; settings: Rattus norvegicus, Hepatocyte; 1 hour, lactate 10 mM / pyruvate 1 mM
Experimental: Select prodrugs of FBPase inhibitors were tested for inhibition of glucose production in isolated rat hepatocytes.
After a 10 minute equilibration period, lactate and pyruvate were added to 10 mM and 1 mM concentrations, respectively. Addition of gluconeogenic substrates was immediately followed by that of appropriate concentrations of test compound. After 1 hour, an aliquot (0.25 ml) was removed, transferred to an Eppendorf tube and centrifuged. The supernatant (50 µl) was then assayed for glucose content using a Glucose Oxidase kit (Sigma Chemical Co.) as per the manufacturer's instructions.

[4] = system: isolated rat hepatocytes; assay: Activation to parent compound in isolated rat hepatocytes (Example I); assay type: cell-based; settings: 100 µM prodrug
Source text: An ODS column was used for analysis. […] Detection was at 310 nm.

[5] = Delivery of parent compound to liver after intraperitoneal prodrug (Example U); assay type: in vivo, rat; settings: 1.3 at 50 mg/kg i.p.; the last time point measured
Experimental: Methods: 1.3 was dissolved in DMSO and administered intraperitoneally to fasted rats at a dose of 50 mg/kg. At various time points following drug administration, animals were anesthetized with halothane. The peritoneal cavity was then opened and a blood sample was obtained from the abdominal vena cava and the liver freeze-clamped and excised. Blood and liver samples were processed as described in Example P and analyzed for 6-Amino-9-neopentyl-8-(2-phosphonofuranyl)purine content as described in Example I.

[6] = Stability in plasma (Example C); assay type: in vitro ADME, rat; settings: 37°C, 5-8 hours, reverse phase HPLC
Method: Methods: Compounds were incubated in plasma at 37°C, and aliqouts removed at appropriate time points over the course of 5-8 hours. The aliquots were extracted with 1.5 volumes of methanol and clarified by centrifugation. Supernatants were then evaporated to dryness and the residues reconstituted with 100 µL of isotonic saline and then analyzed by reverse phase HPLC.

[7] = Oral bioavailability by urinary excretion method (Example M); assay type: in vivo; settings: rat, urine, parent compound, read-out: % OBAV Parent
Method: The oral bioavailability of prodrugs of a variety ofphosphonic acid FBPase inhibitors was estimated by a urinary excretion method in rat.
The quantity of parent compound excreted into urine was determined by HPLC analysis. An ODS column eluted with a gradient from potassium phosphate buffer, pH 5.5 to acetonitrile was employed for these measurements. Detection was at 310-325 nm.

[8] = Liver ara-ATP and plasma/urine ara-hypoxanthine after intravenous dosing (Example O); assay type: in vivo, rat
Experimental: The temporal profile of ara-hypoxanthine and ara-ATP generation following intravenous administration of 30.1 and free ara-AMP was compared in the rat.
Method: 30.1 and ara-AMP (Sigma) were administered to normal, fasted rats intravenously (in saline) via tail vein catheters. At appropriate time points following drug a administration, animals were lightly anesthetized with halothane. The peritoneal cavity was then opened and a blood sample was obtained from the abdominal vena cava and the liver freeze-clamped and excised.
The blood samples were heparinized and plasma was prepared. Plasma samples (100 µL) were mixed with 4 N perchloric acid (40 µL), vortexed, and then clarified by centrifugation. The supernatants were analyzed for ara-hypoxanthine by HPLC with use of a Beckman Ultrasphere ODS column (4.6 x 150 mm). The column was eluted with 100 mM acetic acid at a flow rate of 1.0 mL/min. The eluent was monitored by UV absorbance at 254 nm.
Livers were immediately homogenized in 3 volumes of 10% perchloric acid (w/w), and the extracts clarified by centrifugation at 2500 x g (5 minutes). The resulting supernatants were removed and neutralized with 0.3 volumes of 3M KOH/ 3M KHCO3. The neutralized liver extracts were then spun in an Eppendorf microfuge at 10,000 rpm (20 minutes, 4°C). The supernatants were analyzed for ara-ATP content by reverse phase HPLC (HP1050) using a Whatman Partisphere SA column (4.6 x 125 mm). A gradient from 0.3M ammonium phosphate buffer pH 3.5 to 0.8M ammonium phosphate pH 3.5 was run (1 ml/minute flow rate).
Renal excretion of araH following i.v. administration of 30.1 or ara-AMP was determined as described in Example Q.

[9] = Activation in tissue homogenates, tissue distribution (Example T); assay type: in vitro ADME, rat; settings: liver cytosol, which does not contain microsomes
Experimental: 30.1 is tested for activation in homogenates from various tissues to assess the specificity of liver activation.
Methods: Rats are anaesthetized under halothane and tissues including liver, kidney, brain , heart, stomach, spleen, muscle, lung, and testis are excised and frozen in liquid nitrogen. Tissues are then homogenized in 1 to 3 volumes of 50 mM Tris/HCl, 154 mM KCl, 1 mM EGTA pH 7.4. The homogenate is centrifuged at 10,000 rpm and 4°C for 30 minutes and the supernatant recovered. Liver cytosol is prepared by centrifuging the liver crude extract for 1 hour at 40,000 rpm and 4°C. Reaction mixtures consist of 50 mM KH2PO4 pH 7.4, 13 mM glucose-6-phosphate, 2 mM NADP^+, 10 units of glucose-6-phosphate dehydrogenase, 100 µM 30.1 and tissue homogenate at a protein concentration of 8.5 mg/ml. Reactions are incubated at 37°C. Aliquots are taken after 0 and 1 hour of incubation, and extracted with 60 % methanol. The methanolic extracts are centrifuged at 14,000 rpm, and filtered prior to analysis by HPLC. The samples are loaded onto a YMC C8 column equilibrated with 0.1% TFA and eluted with a methanol gradient to 80%. The activation of 30.1 to ara-AMP is monitored at […]

[10] = system: isolated rat hepatocytes; assay: Active drug metabolites formed after prodrug activation in isolated rat hepatocytes (Example K); settings: Dose 100 µM, time point 2h
Method: Methods: Hepatocytes were prepared and incubated as described in Example I. 28.4 and 30.1 and their respective parent compounds, PMEA and ara-AMP, were dissolved in DMSO or methanol to yield 10 mM stock solutions, and then diluted into the cell suspension to yield a final concentration of 100 µM. At appropriate time points over the course of 2-4 hours, aliquots of the cell suspension were removed and spun through a silicon/mineral oil layer into 10% perchloric acid. The cell extracts in the acid layers were neutralized by the addition of 0.3 volumes of 3M KOH/3M KHCO3, and the extract was then centrifuged, filtered (0.2 micron filter) and loaded onto an anion exchange HPLC column equilibrated with 70% A (10 mM ammonium phosphate pH 3.5, 6% ETOH) and 30% B (1 M ammonium phosphate pH 3.5, 6% ETOH). Ara-ATP and PMEApp were eluted with a gradient to 80% B. Detection was at 254 nm.

[11] = system: recombinant CYP3A4; assay: Activation by recombinant CYP3A4 (Example G); assay type: in vitro ADME; settings: 30.1 at 250 µM, 37°C, NADPH dependent, linear for 30 minutes
Experimental: Activation of 30.1 and 28.4 was evaluated in reactions containing microsomes from baculovirus-infected insect cells co-expressing recombinant CYP3A4 and cytochrome p450 reductase (Panvera Corp., Madison, WI).
Methods: Reaction mixture composition was similar to that described in Example E. Reactions were terminated by addition of methanol to a final concentration of 60%, and products typically analyzed by HPLC with use of a YMC reverse phase C8 column (250 x 4.6 mm). […] The effluent was monitored at 254 nm.

[12] = system: human liver microsomes; assay: Identification of the p450 isozyme involved in activation, with specific p450 inhibitors (Example F); assay type: in vitro ADME; settings: 250 µM prodrug, ketoconazole, furafylline, sulfaphenazole as inhibitors
Experimental: Reactions were stopped by addition of methanol to a concentration of 60%, filtered (0.2 µM filter), and lyophilized. Samples were resuspended in HPLC buffer (10 mM phosphate pH 5.5, 2.5 mM octyl-triethyl-ammonium), loaded onto a YMC C8 HPLC column (250 x 4.6 mm), and eluted with a methanol gradient to 80%.

[13] = Pharmacokinetics of 30.1 after intravenous dosing (Example N); assay type: in vivo, rat; settings: for half-life: 20 mg/kg
Experimental: The pharmacokinetics of 30.1 were evaluated in the rat.
Methods: 30.1 was administered at 20 mg/kg to fasted rats via the tail vein under light halothane anesthesia. At apropriate time points following drug administration, rats were re-anesthetized with halothane. The peritoneal cavity was then opened and a blood sample was obtained from the abdominal vena cava and the liver freeze-clamped and excised. Blood samples were briefly centrifuged and the plasma fraction was then extracted with 1.5 volumes of methanol, processed, and analyzed by HPLC as described in Example A. Liver samples were excised, frozed in liquid nitrogen, and then homogenized in 100% methanol. Liver extracts were then centrifuged at 14,000 rpm and the methanolic supernatants subsequently filtered and evaporated to dryness. Samples were resuspended in isotonic saline and analyzed by HPLC as described in Example A. Pharmacokinetic parameters were determined with the aid of WinNonLin version 1:1 (Scientific Consulting, Inc.) software. Renal excretions studies were performed as described in Example Q.

[14] = Preliminary 22-day toxicological evaluation, intraperitoneal (Example R); assay type: in vivo, mouse; settings: i.p. 10 and 100 mg/kg b.i.d. for 22 days, doses up to 200 mg/kg/d
Source text: Death and other obvious signs of toxicity such as weight loss, tremors, ruffling fur, hunching, prostration, diarrhea, lethargy, and hyperactivity were monitored.

- rate of formation of parent compound ([1]; 250 µM prodrug, 37°C, NADPH-generating system): 0.55 nmoles/mg microsomal protein/minute
- stability of 1.3 ([2]; 100 µM in phosphate buffer pH 7.4, 1 hour at room temperature): fully stable
- intrahepatocyte levels of parent compound 6-Amino-9-neopenhyl-8-(2-phosphonofuranyl)purine [4]: similarly high levels
- persistence of 6-Amino-9-neopentyl-8-(2-phosphonofuranyl)purine in plasma and liver [5]: 4 h
- metabolism / degradation in fresh rat plasma [6]: no evidence of metabolism
Structure (SMILES): CC(C)(C)Cn1c(-c2ccc(P3(=O)OC4CC(O)CC(C4)O3)o2)nc2c(N)ncnc21 (single isomer, unassigned) [Compound 1.3, 6-Amino-8-(5'-hydroxyl-1',3' cyclohexyl)phosphonofuranyl-9-neopentyl purine]
- pIC50 [3]: 4.89

- bioavailability at 24 h [7]: 0.5%
Structure (SMILES): CC(C)Cn1c(-c2ccc(P(=O)(O)O)o2)nc2ccc(Cl)cc21 [6-Chloro-1-isobutyl-2-(2-phosphono-5-furanyl) benzimidazole]

Structure (SMILES): Nc1ncnc2c1ncn2[C@@H]1O[C@H](COP2(=O)OCCC(c3ccncc3)O2)[C@@H](O)[C@@H]1O (stereo partly drawn) [Compound 30.1, Adenine-9-beta-D-arabinofuranoside-5'-[1-(4-pyridyl)-1,3-propyl]monophosphate]
- amount of araATP per gram of liver over time (Figure 1A) ([8]; 30.1 i.v. 10 and 3 mg/kg vs araAMP 10 mg/kg): Significantly higher liver levels
- ara-hypoxanthine in urine ([8]; i.v. 30.1): Nor was ara-hypoxanthine detected in urine
- ara-hypoxanthine (araH) in plasma ([8]; i.v., 30.1 at 10 and 3 mg/kg, ara-AMP at equivalent doses): virtually no araH; also recorded: not detected
- liver levels of araATP relative to araA or araAMP ([8]; i.v., summary statements of Example O): 2-5 fold and 2- to 5 fold
- activation of 30.1 to ara-AMP [9]: does not result in activation
- reaction rate for the formation of ara-AMP ([1]; 250 µM 30.1, 37°C, human liver microsomes): 0.12 nmoles/min/mg of microsomal protein
- Product concentration nmoles/g cells (ara-ATP) [10]: 108±4 nmoles/g cells
- stability / decomposition of 30.1 ([2]; 10 µg/mL in isotonic saline and 100 mM potassium phosphate buffers pH 3, 7 and 9, room temperature, sampled 1, 2, 5, 7 days, HPLC): stable for at least seven days; also recorded: No decomposition
- rate of formation of ara-AMP [11]: 3.3 ± 0.5 nmoles/ min/ nmole CYP3A4
- primary p450 isoform responsible for activation in human liver [12]: CYP3A4
- concentration of prodrug observed in liver ([13]; 20 mg/kg i.v., at 20 minutes): ~ 20 nmoles/g
- half-life ([13]; rat, liver, iv, 20 mg/kg i.v., read-out: liver half life (converted)): 54 min
- half-life ([13]; rat, plasma, iv, 20 mg/kg i.v., read-out: plasma half life (converted)): 11.4 min
- half-life ([13]; rat, plasma, iv, 30.1 in rat, restated in Example S, read-out: plasma half-life): 12 min
- clearance ([13]; rat, plasma, iv, 20 mg/kg i.v.): 55.7 mL/min/kg
- MRT ([13]; rat, plasma, iv, 20 mg/kg i.v., read-out: mean residence time): 12.6 min
- Vd ([13]; rat, plasma, iv, 20 mg/kg i.v., read-out: volume of distribution): 0.7 L/kg
- dose excreted at 24 h ([13]; rat, urine, iv, 24 hr urine, read-out: urinary (renal) excretion (24hr)): ~58%
- mortality and obvious signs of toxicity [14]: safely administered
- metabolism / degradation in fresh rat plasma [6]: not degraded; also recorded: no evidence of metabolism
